Results reported in paper PMC7497641, “Neurotropic activity and safety of methylene-cycloalkylacetate (MCA) derivative 3-(3-allyl-2-methylenecyclohexyl) propanoic acid” (ACS Chemical Neuroscience, 2020).

Experiments:
[1] = target: T1, Adrenergic Receptor β1 (ADRB1) (Homo sapiens, UniProt P08588); assay: SAFETYscan GPCR cAMP; type: cell-based; conditions: read-out: RC50 (the source's name)
T1 construct: host or cells: cAMP Hunter cell lines

[2] = target: T2, Dopamine Receptor D1 (DRD1) (Homo sapiens, UniProt P21728); assay: SAFETYscan GPCR cAMP; type: cell-based
T2 construct: host or cells: cAMP Hunter cell lines

[3] = target: T3, Dopamine Receptor D2 (DRD2S) (Homo sapiens, UniProt P14416); assay: SAFETYscan GPCR cAMP; type: cell-based
T3 construct: host or cells: cAMP Hunter cell lines

[4] = target: T4, Nicotinic acetylcholine Receptor alpha-4 beta-2 (nAChR(a4/b2)) (Homo sapiens, UniProt P17787+P43681); assay: cell-based; conditions: Ion channel, read-out: RC50 (the source's name)
T4 construct: host or cells: unnamed DiscoverX cell line

[5] = target: T5, Insulin Receptor (tyrosine kinase) (INSR) (Homo sapiens, UniProt P06213); assay: SAFETYscan KINOMEscan binding assay; conditions: Inhibitor
T5 construct: host or cells: E. coli BL21-derived host (T7 phage) or HEK-293

[6] = target: T6, Lymphocyte Cell-Specific Protein-Tyrosine Kinase (Src family) (LCK) (Homo sapiens, UniProt P06239); assay: SAFETYscan KINOMEscan binding assay; conditions: Inhibitor
T6 construct: host or cells: E. coli BL21-derived host (T7 phage) or HEK-293

[7] = target: T7, Monoamine oxidase type A (MAOA) (Homo sapiens, UniProt P21397); assay: SAFETYscan Enzymatic assay; type: biochemical; conditions: Inhibitor
T7 construct: purchased Sigma-Aldrich-Merck

[8] = test system: dorsal root ganglion (DRG) sensory neurons; assay: DRG neurite outgrowth assay; type: cell-based, mice; conditions: HU-MCA-13 5 μM, DRG explants, 5 days
Description: In the second step, we study the effect of HU-MCA-13 on ex-vivo sensory neuronal cultures obtained from dissociated dorsal root ganglia (DRG), a model in which the neurons tend to extend neurites in culture at a high rate, and all neurite outgrowths are axons, as confirmed by immune staining for cytoskeletal-specific proteins.[27] […] By contrast, NGF induced a strong, 3.5-fold increase in neurite outgrowth to a value of 700 μm (Figure 1 and Figure 3B) and a ratio of 8.5 between the area covered by neurites and that covered by the DRG ganglia (Figure 3C). Similarly, HU-MCA-13 induced a 2.5 fold increase in neurite outgrowth to a value of about 500 μm (Figure 1 and Figure 3B) and a ratio of 5.4 between the area covered by neurites and that covered by the DRG ganglia (Figure 3C). […] These experiments extend the neurotropic effect of MCA-13 observed with PC12 dopaminergic neuronal cultures to DRG sensory neurons.
To perform these experiments, 10 DRGs were excised under sterile conditions and transferred to Dulbecco’s Modified Eagle Medium (DMEM) containing 0.25% Type IV collagenase in at 37 °C for 45 min, followed by a 20 min incubation with 0.025% trypsin in DMEM, to digest the associated connective tissue surrounding the neurons. After plating the ganglia onto collagen (50 μg/mL)/laminin mixture (5 μg/mL)-coated tissue culture wells for 24 h, DRG neurons were cultured for additional 1–7 days in fresh Neurobasal A/B27 medium[27] containing either 50 ng/mL NGF (positive control), medium containing 1% DMSO (negative control) or 5 μM MCA-13. The living cultures were photographed and thereafter, the ganglia were immunostained for β tubulin III and again photographed using a fluorescent microscope. A researcher blinded to the experimental conditions performed image analysis, and the neurite outgrowth length (in micrometers) was measured.[50]

[9] = Single-dose acute tolerance, intravenous; type: in vivo, Male C57BL/6 mice; conditions: 250 mg/kg intravenously
Experimental: This pilot study was conducted according to guidance for industry single dose acute toxicity testing for pharmaceuticals (https://www.fda.gov/regulatory-information/search-fda-guidance-documents/single-dose-acute-toxicity-testing-pharmaceuticals) to obtain acute information on the dose toxicity of HU-MCA-13 in male mice. Male C57BL/6 mice were injected intravenously with 0.2 mL of HU-MCA-13 in a dose of 250 mg/kg. […] The mortality and changes on body weight, clinical signs and gross observation, were monitored up to 30 days after treatment.
Sensory motor/neurological performance
The performance was weekly measured using several routine motor tests, but no neurological losses w ere observed (Table 1). Sensory motor tests were scored individually and according to the neurologic function severity score (NSS). The data from each individual test and the total score calculated from individual tests that make up the mNSS were measured. The following tests were […]
a. Beam balance test -mice were placed on a 2.5 cm wide beam for 60 seconds. A normal response is balance with steady posture for 60 seconds (a score of 0). Deficits are scored if the rat:
1. Grasps the side of the beam (score of 1); 2. Hugs the beam and one limb falls down from the beam (score of 2); 3. Hugs the beam and two limbs fall off the beam (score of 3); 4. Try to balance on the beam, but falls off from 60 seconds (score of 4); 5. Try to balance on the beam but falls off from 60 seconds (score of 5); 6. Falls off with no attempt to balance or hang on the beam in les s than 20 seconds (score of 6). b. Foot fault test- dysfunction of forelimb movement, while walking on elevated metal grids.
The animal was placed on horizontal grids (85 ×26 ×20) cm with a glass enclosure for observation.
With each weight bearing step, the forelimb can fall or slip between the metal support bars, an event recorded as a foot fault. The total number of forelimb steps and the total number of foot faults were counted. The percentage of forelimb foot faults to the total steps that occurred within 2 minutes represent the test results. c. Hind limb placing test- This assay monitors reposition of hind limbs placed down and away from the table edge. The ability to retrieve and place the hind limbs back onto the table was measured. Immediate and complete limb retrieval was scored 0, delayed (>2 seconds) limb retrieval and/or interspersed flailing was scored 1, and no limb retrieval was scored 2; d. Increasing platform angle to slide test- This assay measures the strength and stability of resistance to slide down an inclined platform. It deploys a clean wooden board (60 X 40 cm) positioned horizontally. Mice were placed on the board with head facing up the increasing incline.
The board then swings to increase the degree of inclination the rat experiences until slipping down the board feet first. The degree of the angle at which the rat relinquishes their grip/stance on the board (slips down) represents the test results; […]
e. Forelimb whole body suspension test- This assay measure s grip strength by duration of suspen sion by forepaws. The rat is suspended o n a metal bar (diameter of 5 mm) which it tightly holds onto by its forelimbs. The time (seconds) during which each rat could sustain its body weight while holding onto the bar is measured. The mice drop from the bar onto soft material with no harm. The test was repeated three times and a mean result per rat was used as the score. […]

[10] = 10 μM, read-out: MCA-13 Max. Responce
[11] = read-out: RC50 (the source's name)

T3 sequence (P14416 1-414 isoform P14416-2): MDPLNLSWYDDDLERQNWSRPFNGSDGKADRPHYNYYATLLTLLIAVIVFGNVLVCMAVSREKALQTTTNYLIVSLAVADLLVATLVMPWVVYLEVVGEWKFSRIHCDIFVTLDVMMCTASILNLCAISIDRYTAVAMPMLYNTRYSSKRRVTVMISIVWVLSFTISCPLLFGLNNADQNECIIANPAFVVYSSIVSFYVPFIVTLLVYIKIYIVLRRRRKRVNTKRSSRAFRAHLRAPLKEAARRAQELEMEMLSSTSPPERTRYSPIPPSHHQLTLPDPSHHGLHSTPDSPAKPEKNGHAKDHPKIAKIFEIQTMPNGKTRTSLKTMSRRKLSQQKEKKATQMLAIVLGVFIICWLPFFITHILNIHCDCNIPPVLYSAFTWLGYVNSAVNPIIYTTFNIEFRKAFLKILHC
T7 sequence (P21397 whole entry): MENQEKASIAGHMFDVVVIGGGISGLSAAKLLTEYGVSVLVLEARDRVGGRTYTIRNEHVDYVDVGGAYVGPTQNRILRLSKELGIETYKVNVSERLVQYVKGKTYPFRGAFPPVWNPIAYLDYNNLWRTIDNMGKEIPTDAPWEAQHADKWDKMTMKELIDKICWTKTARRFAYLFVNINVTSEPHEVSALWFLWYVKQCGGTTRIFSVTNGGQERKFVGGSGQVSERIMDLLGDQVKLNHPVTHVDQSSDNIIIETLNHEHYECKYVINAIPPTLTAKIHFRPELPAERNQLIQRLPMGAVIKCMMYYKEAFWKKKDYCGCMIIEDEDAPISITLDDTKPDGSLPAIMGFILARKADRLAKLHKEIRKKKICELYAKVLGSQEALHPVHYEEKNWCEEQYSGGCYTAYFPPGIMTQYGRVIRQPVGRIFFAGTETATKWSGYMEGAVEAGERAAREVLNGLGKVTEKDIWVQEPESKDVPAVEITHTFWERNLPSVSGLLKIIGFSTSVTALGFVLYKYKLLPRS
T4 sequence (P43681 29-627 limits assumed): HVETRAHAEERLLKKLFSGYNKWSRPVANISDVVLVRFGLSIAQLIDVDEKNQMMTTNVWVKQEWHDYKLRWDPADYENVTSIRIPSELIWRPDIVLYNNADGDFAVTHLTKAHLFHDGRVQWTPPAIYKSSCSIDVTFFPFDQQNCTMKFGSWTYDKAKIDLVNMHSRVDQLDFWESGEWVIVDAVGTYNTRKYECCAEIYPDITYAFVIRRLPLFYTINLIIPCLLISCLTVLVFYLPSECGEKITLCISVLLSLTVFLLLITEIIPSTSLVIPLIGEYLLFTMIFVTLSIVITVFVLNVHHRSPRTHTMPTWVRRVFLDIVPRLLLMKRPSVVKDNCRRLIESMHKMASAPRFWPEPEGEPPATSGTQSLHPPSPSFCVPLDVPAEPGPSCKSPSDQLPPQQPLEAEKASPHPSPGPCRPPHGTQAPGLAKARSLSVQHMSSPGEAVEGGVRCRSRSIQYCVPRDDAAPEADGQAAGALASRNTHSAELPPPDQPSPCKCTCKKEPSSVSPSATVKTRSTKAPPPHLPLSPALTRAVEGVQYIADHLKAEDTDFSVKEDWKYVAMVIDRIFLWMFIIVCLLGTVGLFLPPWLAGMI
T4 sequence (P17787 26-502): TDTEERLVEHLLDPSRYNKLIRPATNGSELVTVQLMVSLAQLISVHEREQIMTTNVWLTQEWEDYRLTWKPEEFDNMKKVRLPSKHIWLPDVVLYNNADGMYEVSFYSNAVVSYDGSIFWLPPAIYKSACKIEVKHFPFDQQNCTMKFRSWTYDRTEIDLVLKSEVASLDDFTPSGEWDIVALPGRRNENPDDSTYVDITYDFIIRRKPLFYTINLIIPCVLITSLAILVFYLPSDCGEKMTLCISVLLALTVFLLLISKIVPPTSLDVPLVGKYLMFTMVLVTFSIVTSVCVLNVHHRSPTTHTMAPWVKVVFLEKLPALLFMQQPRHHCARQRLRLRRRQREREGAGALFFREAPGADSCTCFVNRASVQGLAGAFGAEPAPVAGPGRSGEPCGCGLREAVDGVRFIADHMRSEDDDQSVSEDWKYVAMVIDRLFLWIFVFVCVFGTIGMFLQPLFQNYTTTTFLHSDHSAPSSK
T6 sequence (P06239 whole entry): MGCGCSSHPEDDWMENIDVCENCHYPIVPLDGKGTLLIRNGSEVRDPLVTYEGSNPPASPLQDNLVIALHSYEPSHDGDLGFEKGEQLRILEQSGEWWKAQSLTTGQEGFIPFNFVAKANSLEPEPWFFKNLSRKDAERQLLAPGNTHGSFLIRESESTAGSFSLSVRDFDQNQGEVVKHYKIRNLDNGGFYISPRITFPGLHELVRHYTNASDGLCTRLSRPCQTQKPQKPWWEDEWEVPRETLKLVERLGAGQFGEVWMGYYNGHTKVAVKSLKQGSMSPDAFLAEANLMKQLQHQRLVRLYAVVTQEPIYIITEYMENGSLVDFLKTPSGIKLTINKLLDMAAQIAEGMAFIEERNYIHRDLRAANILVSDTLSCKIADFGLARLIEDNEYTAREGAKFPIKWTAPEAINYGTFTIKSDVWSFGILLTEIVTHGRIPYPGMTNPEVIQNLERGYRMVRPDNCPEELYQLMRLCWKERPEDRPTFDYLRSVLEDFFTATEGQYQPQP
T1 sequence (P08588 whole entry): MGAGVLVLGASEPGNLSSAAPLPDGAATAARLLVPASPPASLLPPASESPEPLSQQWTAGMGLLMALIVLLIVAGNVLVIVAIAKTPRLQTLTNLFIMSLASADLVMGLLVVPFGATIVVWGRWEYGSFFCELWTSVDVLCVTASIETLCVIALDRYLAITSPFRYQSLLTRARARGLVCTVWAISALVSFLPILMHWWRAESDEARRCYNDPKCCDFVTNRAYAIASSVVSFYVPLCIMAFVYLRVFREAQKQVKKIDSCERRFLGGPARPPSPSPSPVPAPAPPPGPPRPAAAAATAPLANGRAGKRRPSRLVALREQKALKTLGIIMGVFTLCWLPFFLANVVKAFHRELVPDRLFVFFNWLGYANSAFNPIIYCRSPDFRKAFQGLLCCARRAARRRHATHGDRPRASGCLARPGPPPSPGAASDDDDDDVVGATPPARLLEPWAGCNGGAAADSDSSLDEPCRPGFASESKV
T2 sequence (P21728 whole entry): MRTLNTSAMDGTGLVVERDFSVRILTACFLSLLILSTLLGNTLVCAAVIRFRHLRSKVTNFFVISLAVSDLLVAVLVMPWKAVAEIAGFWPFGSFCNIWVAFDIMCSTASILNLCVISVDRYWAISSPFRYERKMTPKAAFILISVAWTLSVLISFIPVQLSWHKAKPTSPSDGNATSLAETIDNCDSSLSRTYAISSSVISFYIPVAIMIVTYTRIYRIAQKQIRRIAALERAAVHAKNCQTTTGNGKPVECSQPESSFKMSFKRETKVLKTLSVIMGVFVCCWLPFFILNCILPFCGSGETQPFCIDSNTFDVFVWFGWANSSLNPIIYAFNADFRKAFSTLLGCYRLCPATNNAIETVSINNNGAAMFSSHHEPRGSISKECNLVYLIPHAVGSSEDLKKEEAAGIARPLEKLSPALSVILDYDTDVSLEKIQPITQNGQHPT
T5 sequence (P06213 28-1382): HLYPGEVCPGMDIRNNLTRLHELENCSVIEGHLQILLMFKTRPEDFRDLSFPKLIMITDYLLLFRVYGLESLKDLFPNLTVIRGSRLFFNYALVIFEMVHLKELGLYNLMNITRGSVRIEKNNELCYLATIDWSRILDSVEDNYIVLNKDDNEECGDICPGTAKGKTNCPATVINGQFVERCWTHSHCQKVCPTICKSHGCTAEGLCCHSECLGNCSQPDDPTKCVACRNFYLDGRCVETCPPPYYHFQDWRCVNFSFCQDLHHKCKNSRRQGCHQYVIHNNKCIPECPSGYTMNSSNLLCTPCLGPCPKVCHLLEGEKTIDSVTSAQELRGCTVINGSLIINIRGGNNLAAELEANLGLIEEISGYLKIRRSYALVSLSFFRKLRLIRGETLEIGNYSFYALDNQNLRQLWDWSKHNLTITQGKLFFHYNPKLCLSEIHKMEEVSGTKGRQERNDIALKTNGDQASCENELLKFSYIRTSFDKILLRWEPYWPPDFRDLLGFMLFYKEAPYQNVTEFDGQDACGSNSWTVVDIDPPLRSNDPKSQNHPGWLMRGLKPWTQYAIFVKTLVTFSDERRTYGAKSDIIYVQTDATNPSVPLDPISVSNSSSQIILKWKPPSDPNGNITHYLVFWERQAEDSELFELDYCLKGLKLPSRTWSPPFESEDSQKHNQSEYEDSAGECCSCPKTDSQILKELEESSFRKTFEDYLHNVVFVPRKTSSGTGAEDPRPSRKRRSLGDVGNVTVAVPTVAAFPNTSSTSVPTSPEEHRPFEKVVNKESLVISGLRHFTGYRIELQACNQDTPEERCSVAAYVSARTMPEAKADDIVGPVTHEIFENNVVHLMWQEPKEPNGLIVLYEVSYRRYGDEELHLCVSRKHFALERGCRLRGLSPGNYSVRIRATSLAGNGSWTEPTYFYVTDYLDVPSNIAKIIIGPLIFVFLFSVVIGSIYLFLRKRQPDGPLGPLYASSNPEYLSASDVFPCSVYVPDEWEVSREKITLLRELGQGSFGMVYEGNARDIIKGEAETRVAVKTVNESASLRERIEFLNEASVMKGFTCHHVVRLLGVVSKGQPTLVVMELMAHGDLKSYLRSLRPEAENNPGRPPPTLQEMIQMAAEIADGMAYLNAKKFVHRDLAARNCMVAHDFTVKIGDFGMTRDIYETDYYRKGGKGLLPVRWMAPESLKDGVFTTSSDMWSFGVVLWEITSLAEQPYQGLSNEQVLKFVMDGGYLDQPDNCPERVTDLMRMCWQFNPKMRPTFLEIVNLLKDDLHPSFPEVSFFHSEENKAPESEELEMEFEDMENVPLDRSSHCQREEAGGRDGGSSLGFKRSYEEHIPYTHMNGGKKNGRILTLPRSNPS

## C=CCC1CCCC(CCC(=O)O)C1=C (stereo not shown) [HU-MCA-13, 3-(3-allyl-2-methylenecyclohexyl)propanoic acid]
[1]; Agonist
  EC50: > 10 µM
[1]; Antagonist
  IC50: > 10 µM
[2]
  EC50: > 10 µM
  IC50: > 10 µM
[3]
  EC50: > 10 µM
  IC50: > 10 µM
[4]; Blocker
  IC50: > 10 µM
[4]; Opener
  EC50: > 10 µM
[5]; [10]
  inhibition at 10 µM: 3.22%
[5]; [11]
  IC50: > 10 µM
[6]; [10]
  inhibition at 10 µM: 12.8%
[6]; [11]
  IC50: > 10 µM
[7]; [10]
  inhibition at 10 µM: 1.86%
[7]; [11]
  IC50: > 10 µM
[8]
  neurite outgrowth length: about 500 μm
  ratio between the area covered by neurites and that covered by the DRG ganglia: 5.4
[8]; versus control medium
  fold increase in neurite outgrowth: 2.5 fold
[9]
  autonomic symptoms (salivation, urinary delivery, pupillary constriction, hair contraction) versus DMSO: no differences were observed
[9]; single dose, monitored up to 30 days
  mortality: could not find any mortality
[9]; first week after injection
  sensory-motor performance, neurologic function severity score (NSS): no neurological losses were observed
[9]; up to 30 days
  changes on body weight versus 1% DMSO treated group: No significant changes
[9]; up to 30 days, started with 21 g
  body weight at end: 27 g
